EC50 data for 62 compounds are collected here from BindingDB's records for doi:10.7270/Q2TX3CTT (Broad Institute, 2010).

Counter-ions that a name gives are not always drawn.

Chain of Glycogen synthase kinase-3 beta (P49841 whole entry): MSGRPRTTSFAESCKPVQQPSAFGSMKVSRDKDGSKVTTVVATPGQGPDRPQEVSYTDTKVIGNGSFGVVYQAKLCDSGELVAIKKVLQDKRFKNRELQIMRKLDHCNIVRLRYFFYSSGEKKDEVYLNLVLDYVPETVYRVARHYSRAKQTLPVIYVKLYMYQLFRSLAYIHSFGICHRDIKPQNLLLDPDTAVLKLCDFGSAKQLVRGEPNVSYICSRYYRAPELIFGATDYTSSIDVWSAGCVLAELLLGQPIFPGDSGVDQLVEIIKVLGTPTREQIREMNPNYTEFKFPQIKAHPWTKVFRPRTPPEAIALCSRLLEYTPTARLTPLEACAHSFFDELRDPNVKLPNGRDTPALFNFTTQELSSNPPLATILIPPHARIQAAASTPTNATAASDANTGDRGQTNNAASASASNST

This assay addresses Glycogen synthase kinase-3 beta (Homo sapiens, UniProt P49841). Kind of assay: GSK3beta kinase inhibitor potency, dose response, biochemical, luminescence, cell-free homogeneous, retest (AID 434954).
`O=C(COc1ccccc1[N+](=O)[O-])NN=Cc1ccc(OC(=O)c2ccco2)cc1` [4-((E)-{2-[2-(2-nitrophenoxy)acetyl]hydrazono}methyl)phenyl 2-furoate] came in with a concentration giving a half-maximal response (EC50) of 14.7 µM. With `O=C(Nc1ccc(O)c2c(=O)cc(-c3ccccc3Cl)oc12)c1cccs1` [SMR000465219] the figure was 16.7 µM; with `CCCCn1nc(NC(=O)COC)c2cc3cc(OC)ccc3nc21` [N-(1-butyl-6-methoxy-3-pyrazolo[3,4-b]quinolinyl)-2-methoxyacetamide], more than 300 µM. Compound `O=C(Nc1ccc(O)c2c(=O)cc(-c3ccccc3Cl)oc12)c1ccc(Cl)c(Cl)c1` had an EC50 of 117 µM. Compound `CN1CCN(C(=O)c2ccc(OCCOc3ccccc3)cc2)CC1` [(4-methylpiperazin-1-yl)-[4-(2-phenoxyethoxy)phenyl]methanone] showed a 50% effective concentration (EC50) of more than 300 µM. With `Fc1cccc(CN=Nc2ncnc3nc[nH]c23)c1` the figure was 11.9 µM; with `CCOC(=O)c1ccc(NC(=O)CN(C)S(=O)(=O)c2ccc(Br)s2)cc1` [ethyl 4-[2-[(5-bromanylthiophen-2-yl)sulfonyl-methyl-amino]ethanoylamino]benzoate], more than 300 µM.

As to `CN(C)CCCNc1nc(N)c([N+](=O)[O-])c(NCc2ccccc2)n1` [MLS001165050], the 50% effective concentration (EC50) was determined as 38 µM. Turning to `CC[n+]1c(/C=C/N(C)c2ccccc2)oc2ccccc21` [SMR000184373], the 50% effective concentration (EC50) was more than 300 µM.

Compound `COCCN(CC(=O)NCc1ccccc1)C(=O)CCC(=O)Nc1ccccn1` [SMR000004552] had an EC50 of more than 300 µM. With `Cc1cc(NC(=O)COc2cccnc2[N+](=O)[O-])no1` [N-(5-methyl-1,2-oxazol-3-yl)-2-(2-nitropyridin-3-yl)oxyacetamide] the figure was more than 300 µM; with `Cc1cccc(NC(=O)CSc2nc(O)c(C#N)c(-c3ccccc3)n2)c1C` [SMR000161905], more than 300 µM; with `Nc1nc(NCC2CCCO2)nc(NCC2CCCO2)c1[N+](=O)[O-]` (configuration not stated), 12.2 µM. `CC1=C(C#N)C(=O)NC(=O)C1=NNc1ccc(S(N)(=O)=O)cc1` [4-[(2Z)-2-(5-cyano-4-methyl-2,6-dioxopyridin-3-ylidene)hydrazinyl]benzenesulfonamide] had an EC50 of 0.917 µM. In turn, `Nc1nc(NCCO)nc(NCC2CCCO2)c1[N+](=O)[O-]` (configuration not stated) had a 50% effective concentration (EC50) of 9.74 µM.

`CC(=O)Nc1ccc(S(=O)(=O)N(Cc2cccnc2)Cc2cc3ccccc3nc2O)cc1` [N-[4-[(2-oxidanylidene-1H-quinolin-3-yl)methyl-(pyridin-3-ylmethyl)sulfamoyl]phenyl]ethanamide]: the concentration giving a half-maximal response (EC50) was more than 300 µM.

In the case of `Cc1ccc(Sc2ccc(CN=O)cc2[N+](=O)[O-])cc1` [4-[(4-methylphenyl)thio]-3-nitrobenzaldehyde oxime], the midpoint of the response, the EC50, lay at 51.7 µM. On to `CCCn1nc(NC(=O)c2cccs2)c2cc3cc(OC)ccc3nc21` [N-(6-methoxy-1-propyl-3-pyrazolo[3,4-b]quinolinyl)-2-thiophenecarboxamide], for which the midpoint of the response, the EC50, lay at 44.5 µM. Regarding `O=C(Nc1ccc(N2CCN(Cc3ccccc3)CC2)cc1)c1ccccc1[N+](=O)[O-]` [N-[4-(4-benzyl-1-piperazinyl)phenyl]-2-nitrobenzamide], the concentration giving a half-maximal response (EC50) was more than 300 µM. Turning to `COc1ccc(Nc2nc(NCCCN3CCOCC3)nc(N)c2[N+](=O)[O-])cc1` [N4-(4-methoxyphenyl)-N2-(3-morpholin-4-ylpropyl)-5-nitro-pyrimidine-2,4,6-triamine], a half-maximal effect (EC50) was put at 1.11 µM. `CC(C)(C)C(=O)COC(=O)c1ccc(O)cc1` had a concentration for a half-maximal effect (EC50) of more than 300 µM.

`Cc1c(Br)c([N+](=O)[O-])nn1CCCC(=O)N1CCN(c2ccccc2)CC1` [SMR000206162] came in with an EC50 of more than 300 µM. The result for `CC1(C)CC(=O)C=C(Nc2ccccc2O)C1` [3-[(2-hydroxyphenyl)amino]-5,5-dimethyl-cyclohex-2-en-1-one] reads more than 300 µM; that for `Cc1ccc(S(=O)(=O)CC(=O)Nc2ncc([N+](=O)[O-])s2)cc1` [2-(4-methylphenyl)sulfonyl-N-(5-nitro-1,3-thiazol-2-yl)acetamide], more than 300 µM. With `CC1CCc2c(sc(Nc3nc4c(F)cccc4s3)c2C(N)=O)C1` (configuration not stated) [2-[(4-fluoranyl-1,3-benzothiazol-2-yl)amino]-6-methyl-4,5,6,7-tetrahydro-1-benzothiophene-3-carboxamide] the figure was more than 300 µM; with `Nc1nc(Nc2ccccc2)nc(NC2CCCCC2)c1[N+](=O)[O-]` [N4-cyclohexyl-5-nitro-N2-phenylpyrimidine-2,4,6-triamine], 7.68 µM. With `Cc1cc(=O)nc2c3ccccc3n(CC(=O)NCCCN3CCCCC3C)n12` (configuration not stated) [MLS001115992] the figure was more than 300 µM; with `O=c1cc(-c2ccccc2Cl)oc2c(Br)ccc(O)c12` [8-bromo-2-(2-chlorophenyl)-5-hydroxy-1-benzopyran-4-one], more than 300 µM; with `COc1ccc2occ(C(=O)c3ccc(N)cc3)c2c1` [SMR000539215], 14.7 µM. `Cc1ccc(NC(=O)CSc2nccn2C)cc1F` [N-(3-fluoro-4-methylphenyl)-2-[(1-methyl-2-imidazolyl)thio]acetamide] showed a concentration for a half-maximal effect (EC50) of more than 300 µM. With `COc1ccc2occ(C(=O)c3coc4ccc(O)c(CN(C)C)c34)c2c1` [[4-[(dimethylamino)methyl]-5-oxidanyl-1-benzofuran-3-yl]-(5-methoxy-1-benzofuran-3-yl)methanone;hydrochloride] the figure was 1.99 µM; with `O=C(Nc1ccc(O)c2c(=O)cc(-c3ccccc3Cl)oc12)c1ccc(Cl)cc1Cl`, 9.16 µM; with `Fc1ccc(CSc2ccc3nnc(-c4cccnc4)n3n2)cc1` [MLS000624295], more than 300 µM.

For `CCNc1nc(N)c(C(=O)C23CC4CC(CC(C4)C2)C3)s1` [Adamantan-1-yl-(4-amino-2-ethylamino-thiazol-5-yl)-methanone], the EC50 was more than 300 µM.

`O=c1[nH]c2ccccc2c(=O)n1-c1ccc(Cl)cc1Cl` [3-(2,4-dichlorophenyl)quinazoline-2,4(1H,3H)-dione] came in with a concentration giving a half-maximal response (EC50) of more than 300 µM. With `COc1ccc(OC)c(Nc2nc(NCc3ccco3)nc(N)c2[N+](=O)[O-])c1` [N'-(2,5-Dimethoxy-phenyl)-N-furan-2-ylmethyl-5-nitro-pyrimidine-2,4,6-triamine] the figure was more than 300 µM; with `O=C(NCc1ccccc1)c1ccc2nccnc2c1` [N-(phenylmethyl)-6-quinoxalinecarboxamide], more than 300 µM. `CC(C)C1Cc2c(sc3c2c(=O)n(-c2ccccc2)c2n[nH]c(=S)n32)CO1` (configuration not stated) [7-Isopropyl-1-mercapto-4-phenyl-6,9-dihydro-4H,7H-8-oxa-10-thia-2,3,4,10b-tetraaza-cyclopenta[a]fluo ren-5-one] showed a concentration giving a half-maximal response (EC50) of more than 300 µM. In the case of `Cc1cc(OC(C)C)c2c(-c3ccccc3)cc(=O)oc2c1` [SMR000141385], the EC50 was more than 300 µM. With `CCn1c(SCc2ccccc2)nnc1-c1cccs1` the figure was more than 300 µM; with `Cc1[nH]c2ccccc2c1Cc1nnc(SCC(N)=O)o1` [2-[[5-[(2-methyl-1H-indol-3-yl)methyl]-1,3,4-oxadiazol-2-yl]sulfanyl]acetamide], more than 300 µM. As for `CCOc1cc(C2c3c(C)n[nH]c3C(=O)N2c2ccc(C)cc2)ccc1O` (configuration not stated) [SMR000035605], the EC50 is more than 300 µM. With `Nc1nc(NC2CCCCC2)nc(NCCO)c1[N+](=O)[O-]` [2-[[6-amino-2-(cyclohexylamino)-5-nitro-4-pyrimidinyl]amino]ethanol] the figure was 2.16 µM.

On to `Cc1c(NC(=O)C(C)n2cc([N+](=O)[O-])cn2)c(=O)n(-c2ccccc2)n1C` (configuration not stated) [N-(1,5-dimethyl-3-oxo-2-phenylpyrazol-4-yl)-2-(4-nitropyrazol-1-yl)propanamide], for which the EC50 was more than 300 µM. Turning to `COc1cc(C=Nn2c(C3CCCCC3)n[nH]c2=S)cc(Br)c1O` [MLS001164684], the EC50 stood at 4.17 µM. This counts as single-digit micromolar. `COc1ccc2occ(C(=O)c3cccs3)c2c1` returned a half-maximal effective concentration (EC50) of 4.03 µM. The result for `COc1cc(CN=O)ccc1OCc1ccccc1Cl` [4-(2-chlorobenzyl)oxy-3-methoxy-benzaldoxime] reads more than 300 µM; that for `O=c1cc(-c2ccccc2)c2ccc(O)cc2o1` [7-Hydroxy-4-phenyl-chromen-2-one], 24.6 µM. The result for `CCN(CC)Cc1c(C(=O)NN=Cc2cccc3ccccc23)nnn1-c1nonc1N` [1-(4-amino-1,2,5-oxadiazol-3-yl)-5-(diethylaminomethyl)-N-(1-naphthalenylmethylideneamino)-4-triazolecarboxamide] reads more than 300 µM; that for `COC(=O)c1ccc2c(=O)n(CC3CCCO3)c(SCC(=O)Nc3ccccc3Cl)nc2c1` (configuration not stated) [2-[[2-(2-chloroanilino)-2-keto-ethyl]thio]-4-keto-3-(tetrahydrofurfuryl)quinazoline-7-carboxylic acid methyl ester], more than 300 µM. Compound `c1ccc2c(c1)oc1c(NCCCn3ccnc3)ncnc12` displayed a half-maximal effective concentration (EC50) of more than 300 µM. With `COc1cc([CH-]N=[O+]C)ccc1Oc1ccc([N+](=O)[O-])cc1[N+](=O)[O-]` [MLS000699890] the figure was more than 300 µM; with `CCC(N=C(S)NC1CCCCC1)c1ccccc1` (configuration not stated) [SMR000678367], more than 300 µM; with `Nc1ncc([N+](=O)[O-])c(N2CCCCCC2)n1` [MLS001174873], 18.4 µM. With `CSc1nsc(CC=Nc2ccc(Cl)cc2)c1C#N` [MLS000539457] the figure was more than 300 µM; with `CCN1/C(=C/c2ccc3cccc(C)c3[n+]2CC)Sc2ccccc21` [(2Z)-3-ethyl-2-[(1-ethyl-8-methyl-2-quinolin-1-iumyl)methylidene]-1,3-benzothiazole;iodide], more than 300 µM; with `Nc1nc(NCCCN2CCOCC2)nc(Nc2cccc(Cl)c2)c1[N+](=O)[O-]` [MLS000769815], 4.25 µM. With `O=[N+]([O-])c1ccccc1Oc1ccccc1Cl` the figure was more than 300 µM.

For the compound `COC(=O)c1cccc(Nc2nc(-c3ccncc3)nc3ccccc23)c1` [MLS001163930], the half-maximal effective concentration (EC50) was more than 300 µM. `CCOc1ccccc1C=NNC(=O)c1nnn(-c2nonc2N)c1CN1CCC(C)CC1` [SMR000620330] gave a half-maximal effective concentration (EC50) of more than 300 µM. Turning to `OC1(C#CCN2CCOCC2)CCCCC1`, the concentration giving a half-maximal response (EC50) was more than 300 µM. The result for `O=c1cc(-c2ccc(O)cc2)oc2cc(O)cc(O)c12` [Naringenin, 18] reads 49.5 µM.

For orientation: EC50 means the concentration at which the effect is half-maximal. A low value points to higher potency in that assay.
